Assay results published in patent US7737250B2, “Peptides for treating axonal damage, inhibition of neurotransmitter release and pain transmission, and blocking calcium influx in neurons” (Mount Sinai School of Medicine of New York University, priority 2003, dated 2010).

What was measured:
[1] = biological target: T1, L1-CAM-ankyrin interactions (Homo sapiens, UniProt Q01484); assay: Ankyrin recruitment assay: ankyrinB co-localization with L1-CAM at the membrane of transfected 293 cells; type: cell-based; settings: 1.4 μg/ml peptide for 30 minutes
T1 construct: expressed in transfected cells; host or cells: human kidney 293 cells
Experimental: Cell culture aid transfection: Human kidney 293 cells were cultured in DMEM medium (Gibco) supplemented with penicillin, streptomycin, L-glutamine, and 10% fetal bovine serum (Hyclone). The pMyc-L1-CAM or pL1-CAM-GFP expression constructs were transfected into cultured human kidney 293 cells using Lipofectamine plus (Invitrogen) according to manufacturer instructions. Cells were cultured for 24-48 hours and then used, or cultured continuously in the presence of 0.5 μg.mL G418 (Gibco) to select for stably transfected cells lines, to generate stable pooled lines of L1-CAM-expressing cells.
In some instances, transfected 293 cells were treated with neural growth factor (NGF) or epidermal growth factor (EGF) to stimulate phosphorylation of tyrosine 1229 (Y1229) of the L1-CAM cytoplasmic domain, and thereby inhibit ankyrin binding. In these cases, cells were treated with 50 ng/mL EGF (Gibco) or 100 ng/mL NGF (Gibco) for 1 hour prior to the assay. […]
Ankyrin and L1-CAM were detected by indirect immunofluorescence in double-labeled confocal sections through cell aggregates to permit the visualization of L1 and ankyrinB at the cell membrane. Expression of myc-L1-CAM was detected using a polyclonal anti-L1-CAM rabbit antibody. […] Ankyrin was detected using a monoclonal anti-ankyrinB mouse antibody (BD PharMingen). […]
Quantification of ankyrin immunolocalization: Confocal micrographs were then used to quantify the degree of ankyrin localization to the cell membrane of myc-L1-CAM expressing cells. Images were analyzed using ImageJ (NIH) under Macintosh OSX. The method for quantifying ankyrinB localization to the membrane uses densitometry of a line scan perpendicular to and crossing a cell-cell junction. […]
The densitometry intensity profile of the scanned line was used to determine a minimum ankyrinB signal for comparison to the value of the ankyrinB signal at the point where the maximum signal in the L1-CAM channel occurs. […] Minima were determined from the regions of the line overlapping the cytoplasm of either of the two cells. […]

[2] = tested on: mouse cerebellar granular neurons; assay: Neurite outgrowth assay; type: cell-based; settings: 30 μg/ml peptide; for average neurite length: 24 h in culture
Experimental: For neurite outgrowth assays, chick Ng-CAM was purified from chick brain using an antibody-based affinity column according to techniques well known in the art. The anti-Ng-CAM antibody was antibody 8D9 (Developmental Studies Hybridoma Bank, University of Iowa). Then purified chick Ng-CAM (50 μg/ml) or mouse laminin (Invitrogen, 100 μg/ml) was spotted on a 35 mm plastic culture dish at room temperature (RT) for 1 hr. After washing with PBS, the plastic surface was blocked with 1% Bovine Serum Albumin in phosphate buffered saline (13SA/PBS) at RT. Negative control dishes were coated with 1% Bovine Serum Albumin in phosphate buffered saline (BSA/PBS) at RT.
Cerebellar cells were prepared from postnatal day 4 (P4) mouse by trypsinization followed by trituration. Postnatal day 4 (P4) mouse cerebellum was minced in Calcium/Magnesium-free phosphate buffer (Ca/Mg-free PBS). Minced cerebellum was then treated with 0.05% Trypsin (Gibco) in Ca/Mg-free PBS for 15 minutes at 37° C. Trypsinization was halted by addition of 10% Fetal Calf Serum (Hyclone). Trypsinized cells were then triturated 5 times with a fire-polished Pasteur pipette to dissociate the cells. The remaining cell clumps were allowed to settle, and the suspended cells were plated and maintained for use in the neurite outgrowth assays.
Cultured cerebellar cells were resuspended in BME/B-27 medium (BME medium plus B-27 supplement, both from Gibco) supplemented with penicillin/streptomycin (Gibco) to a cell density of 5×10^5 cells/ml. Then 250 μl of this cell suspension was plated on the dishes. AP-YF or AP-Scramble peptides dissolved in Hank's Balanced Salt Solution (Gibco) were added to the plated cells at final concentration of 30 μg/ml. Cultures were incubated at 37° C. for 24 hrs in 5% CO2. These cultures were fixed with 4% paraformaldehyde and images were collected on a Zeiss Axiovert 100TV microscope using a 100× plan neofluor objective. Neurite outgrowth measurements were performed using NIH image software. Data was expressed as average neurite length in μm (+/− standard deviation). P-values were determined using Student's t-test analysis. Microsoft Excel was used to plot the data as % neurites of length greater than Xpm versus neurite length X (in μm).
Mouse cerebellar granular neurons were plated on tissue culture dishes coated with chick Ng-CAM, a chick homolog of L1-CAM, or on tissue culture dishes coated with mouse laminin. The Ng-CAM substrate interacts with cell-surface L1-CAM, while laminin substrate interacts with cell surface integrins and therefore serves as the negative control. These cultures were treated with either AP-YF or AP-Scramble peptides. After 24 hours of culture, the neurons were fixed and neurite outgrowth lengths w-ere measured by NIH image software degree (in μm).

T1 sequence (Q01484 whole entry): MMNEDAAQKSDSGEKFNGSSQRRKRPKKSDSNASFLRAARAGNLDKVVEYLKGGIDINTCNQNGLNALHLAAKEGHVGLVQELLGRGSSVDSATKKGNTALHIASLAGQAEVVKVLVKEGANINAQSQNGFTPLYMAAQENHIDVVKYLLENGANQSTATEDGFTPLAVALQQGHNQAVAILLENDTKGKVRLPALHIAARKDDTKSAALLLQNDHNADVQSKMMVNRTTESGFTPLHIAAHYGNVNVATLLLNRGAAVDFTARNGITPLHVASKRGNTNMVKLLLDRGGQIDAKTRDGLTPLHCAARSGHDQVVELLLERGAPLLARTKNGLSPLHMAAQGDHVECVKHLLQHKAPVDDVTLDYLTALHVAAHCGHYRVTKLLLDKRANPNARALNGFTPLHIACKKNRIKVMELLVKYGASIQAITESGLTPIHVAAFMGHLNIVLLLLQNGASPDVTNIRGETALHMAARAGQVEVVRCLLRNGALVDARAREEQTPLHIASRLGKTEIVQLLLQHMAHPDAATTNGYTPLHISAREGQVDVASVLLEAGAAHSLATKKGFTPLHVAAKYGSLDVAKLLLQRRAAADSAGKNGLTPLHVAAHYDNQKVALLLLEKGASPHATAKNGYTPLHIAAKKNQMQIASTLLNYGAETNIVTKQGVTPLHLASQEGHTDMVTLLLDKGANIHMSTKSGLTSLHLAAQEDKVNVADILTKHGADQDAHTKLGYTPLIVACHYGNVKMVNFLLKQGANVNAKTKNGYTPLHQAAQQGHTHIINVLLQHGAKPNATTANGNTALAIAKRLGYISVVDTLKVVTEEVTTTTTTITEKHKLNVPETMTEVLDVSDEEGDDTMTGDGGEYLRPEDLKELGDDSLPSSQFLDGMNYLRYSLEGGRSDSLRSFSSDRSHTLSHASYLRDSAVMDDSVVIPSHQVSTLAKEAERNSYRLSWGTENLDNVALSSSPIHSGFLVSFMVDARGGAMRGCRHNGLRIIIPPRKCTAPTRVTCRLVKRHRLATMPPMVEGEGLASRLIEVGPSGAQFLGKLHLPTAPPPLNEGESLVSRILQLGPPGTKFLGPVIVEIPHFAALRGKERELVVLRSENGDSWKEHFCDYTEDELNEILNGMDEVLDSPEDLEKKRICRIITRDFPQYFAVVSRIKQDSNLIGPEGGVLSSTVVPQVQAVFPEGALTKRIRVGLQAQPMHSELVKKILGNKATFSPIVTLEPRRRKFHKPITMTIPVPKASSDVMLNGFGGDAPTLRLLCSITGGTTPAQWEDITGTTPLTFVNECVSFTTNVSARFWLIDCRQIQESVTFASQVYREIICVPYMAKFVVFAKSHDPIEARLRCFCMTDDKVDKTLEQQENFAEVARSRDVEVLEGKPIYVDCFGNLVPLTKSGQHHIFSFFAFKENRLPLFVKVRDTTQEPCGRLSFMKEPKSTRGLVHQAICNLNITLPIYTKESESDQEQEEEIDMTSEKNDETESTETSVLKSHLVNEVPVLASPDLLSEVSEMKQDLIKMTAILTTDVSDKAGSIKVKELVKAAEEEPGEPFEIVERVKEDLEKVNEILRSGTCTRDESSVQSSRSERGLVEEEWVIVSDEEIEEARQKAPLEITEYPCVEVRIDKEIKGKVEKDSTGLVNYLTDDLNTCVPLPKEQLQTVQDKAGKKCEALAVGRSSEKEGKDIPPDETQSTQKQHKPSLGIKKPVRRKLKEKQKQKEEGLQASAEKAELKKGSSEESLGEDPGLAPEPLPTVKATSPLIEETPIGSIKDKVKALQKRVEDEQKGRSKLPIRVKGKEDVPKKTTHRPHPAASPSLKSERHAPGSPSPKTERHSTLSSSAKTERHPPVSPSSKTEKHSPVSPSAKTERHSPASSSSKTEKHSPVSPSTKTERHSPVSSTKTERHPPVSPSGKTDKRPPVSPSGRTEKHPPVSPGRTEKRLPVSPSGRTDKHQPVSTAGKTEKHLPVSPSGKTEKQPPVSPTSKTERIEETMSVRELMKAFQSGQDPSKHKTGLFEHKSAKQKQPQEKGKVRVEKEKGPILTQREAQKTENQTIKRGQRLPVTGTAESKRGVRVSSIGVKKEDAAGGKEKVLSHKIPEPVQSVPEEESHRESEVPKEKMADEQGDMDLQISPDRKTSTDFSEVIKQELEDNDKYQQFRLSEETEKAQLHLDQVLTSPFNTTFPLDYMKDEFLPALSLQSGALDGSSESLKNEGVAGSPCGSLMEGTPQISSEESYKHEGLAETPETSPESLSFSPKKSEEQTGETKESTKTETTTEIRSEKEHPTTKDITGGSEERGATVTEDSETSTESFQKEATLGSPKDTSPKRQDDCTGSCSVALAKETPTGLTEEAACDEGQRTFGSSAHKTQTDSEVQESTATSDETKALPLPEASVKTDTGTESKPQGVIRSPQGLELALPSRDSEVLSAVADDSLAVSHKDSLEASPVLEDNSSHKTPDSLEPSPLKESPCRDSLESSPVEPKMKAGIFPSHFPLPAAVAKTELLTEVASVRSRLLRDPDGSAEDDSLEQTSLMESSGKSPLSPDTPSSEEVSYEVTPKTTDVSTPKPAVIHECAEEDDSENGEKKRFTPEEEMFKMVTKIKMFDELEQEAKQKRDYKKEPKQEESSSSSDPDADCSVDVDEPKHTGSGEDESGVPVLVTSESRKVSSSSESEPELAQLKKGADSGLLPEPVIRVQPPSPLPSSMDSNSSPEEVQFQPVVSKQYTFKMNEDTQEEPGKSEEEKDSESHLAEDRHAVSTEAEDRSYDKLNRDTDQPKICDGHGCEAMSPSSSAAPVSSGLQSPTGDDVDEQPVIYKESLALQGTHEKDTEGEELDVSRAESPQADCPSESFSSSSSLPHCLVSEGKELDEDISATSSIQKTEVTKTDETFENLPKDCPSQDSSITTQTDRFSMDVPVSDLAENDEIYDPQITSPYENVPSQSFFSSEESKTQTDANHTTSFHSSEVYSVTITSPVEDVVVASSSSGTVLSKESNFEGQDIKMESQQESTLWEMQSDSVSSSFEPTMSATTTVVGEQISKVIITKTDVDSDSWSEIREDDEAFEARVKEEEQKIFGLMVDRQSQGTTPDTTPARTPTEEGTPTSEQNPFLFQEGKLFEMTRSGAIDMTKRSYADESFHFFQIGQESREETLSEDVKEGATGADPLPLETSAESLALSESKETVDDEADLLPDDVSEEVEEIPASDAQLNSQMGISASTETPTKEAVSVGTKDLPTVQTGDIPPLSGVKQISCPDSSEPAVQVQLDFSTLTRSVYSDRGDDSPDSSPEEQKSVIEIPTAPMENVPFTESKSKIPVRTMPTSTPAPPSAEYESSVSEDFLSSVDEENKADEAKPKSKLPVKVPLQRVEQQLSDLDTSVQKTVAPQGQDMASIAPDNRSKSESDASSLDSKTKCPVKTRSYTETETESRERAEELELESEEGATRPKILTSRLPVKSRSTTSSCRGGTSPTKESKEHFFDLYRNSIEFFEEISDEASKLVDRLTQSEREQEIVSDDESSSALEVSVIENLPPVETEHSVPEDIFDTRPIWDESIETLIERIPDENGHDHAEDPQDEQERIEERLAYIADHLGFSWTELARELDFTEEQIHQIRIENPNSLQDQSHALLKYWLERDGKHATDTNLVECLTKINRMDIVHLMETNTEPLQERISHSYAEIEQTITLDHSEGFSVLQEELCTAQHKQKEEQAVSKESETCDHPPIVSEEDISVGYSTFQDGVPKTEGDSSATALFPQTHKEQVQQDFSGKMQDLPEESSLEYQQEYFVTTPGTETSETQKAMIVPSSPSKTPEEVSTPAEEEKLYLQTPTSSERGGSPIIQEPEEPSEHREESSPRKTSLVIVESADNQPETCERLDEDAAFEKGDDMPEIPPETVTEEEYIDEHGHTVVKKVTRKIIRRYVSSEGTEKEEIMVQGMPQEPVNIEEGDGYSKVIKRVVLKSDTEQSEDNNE

Sequence | ankyrin co-localization with L1-CAM at the cell membrane (L1-CAM-ankyrin interactions) [1] | neurite extension above control levels ([2]; on Ng-CAM substrate, 24 h, vs AP-Scramble) | average neurite length ([2]; on Ng-CAM substrate) | axon extension on laminin ([2]; on laminin substrate, 24 h, vs AP-Scramble)
RQIKIWFQNRRMKWKKQFNEDGSFIGQF [AP-YF] | inhibited L1-CAM-ankyrin interactions | 55% | 32 μm | not significantly affected
RQIKIWFQNRRMKWKKFQGIFSGDENFQ [AP-Scramble] | no detectible effects |  | 21 μm | 
